Data reported in the supplement of paper PMC10307832.

Columns and labels:
Experiment in all cases: relative viability (nuclei count vs DMSO), 5 days (fraction); higher = more cells survive
[1] = test system: ABC-1
Procedure, shortened: (§1)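 Values are medians from duplicate plates. Each reflects relative viability, defined as the nuclei count of treated wells over that of vehicle wells. Lung cancer cell lines in 1536-well plates were pin-tool dosed one day after seeding with one drug alone or with a fixed anchor-drug dose plus five library-drug doses (not always all listed) in √10 steps, then fixed, stained and imaged at 4× after 5 days.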

[2] = test system: BEN
Procedure, shortened: as §1

[3] = test system: EPLC-272H
Procedure, shortened: as §1

[4] = test system: HCC-827
Procedure, shortened: as §1

[5] = test system: HOP-62
Procedure, shortened: as §1

[6] = test system: LU99A
Procedure, shortened: as §1

[7] = test system: NCI-H1355
Procedure, shortened: as §1

[8] = test system: NCI-H1666
Procedure, shortened: as §1

[9] = test system: NCI-H1792
Procedure, shortened: as §1

[10] = test system: NCI-H1975
Procedure, shortened: as §1

[11] = test system: NCI-H23
Procedure, shortened: as §1

[12] = test system: NCI-H2405
Procedure, shortened: as §1

[13] = test system: NCI-H3122
Procedure, shortened: as §1

[14] = test system: NCI-H322M
Procedure, shortened: as §1

[15] = test system: NCI-H358
Procedure, shortened: as §1

[16] = test system: NCI-H520
Procedure, shortened: as §1

[17] = test system: NCI-H596
Procedure, shortened: as §1

[18] = test system: NCI-H647
Procedure, shortened: as §1

[19] = test system: NCI-H727
Procedure, shortened: as §1

[20] = test system: NCI-H838
Procedure, shortened: as §1

[21] = test system: PC-14
Procedure, shortened: as §1

[22] = test system: UMC-11
Procedure, shortened: as §1

Compound: O=c1[nH]c2ccccc2n1C1CCN(CCCC(c2ccc(F)cc2)c2ccc(F)cc2)CC1 [Pimozide] + C[C@]1(O)C[C@@H](c2nc(-c3ccc4ccc(-c5ccccc5)nc4c3)c3c(N)nccn32)C1 [Linsitinib] (partner 1 µM)
- relative viability ([1]; first compound 0.08 µM): 0.825
- relative viability ([1]; first compound 0.253 µM): 0.747
- relative viability ([1]; first compound 0.8 µM): 0.788
- relative viability ([1]; first compound 2.53 µM): 0.629
- relative viability ([1]; first compound 8 µM): 0.491
- relative viability ([2]; first compound 0.08 µM): 1.07
- relative viability ([2]; first compound 0.253 µM): 1.02
- relative viability ([2]; first compound 0.8 µM): 0.856
- relative viability ([2]; first compound 2.53 µM): 0.88
- relative viability ([2]; first compound 8 µM): 0.892
- relative viability ([3]; first compound 0.08 µM): 0.913
- relative viability ([3]; first compound 0.253 µM): 1.15
- relative viability ([3]; first compound 0.8 µM): 1.21
- relative viability ([3]; first compound 2.53 µM): 1.17
- relative viability ([3]; first compound 8 µM): 1.09
- relative viability ([4]; first compound 0.253 µM): 0.986
- relative viability ([4]; first compound 0.8 µM): 0.915
- relative viability ([4]; first compound 2.53 µM): 0.944
- relative viability ([4]; first compound 8 µM): 0.939
- relative viability ([5]; first compound 0.08 µM): 0.847
- relative viability ([5]; first compound 0.253 µM): 0.839
- relative viability ([5]; first compound 2.53 µM): 1.04
- relative viability ([5]; first compound 8 µM): 0.754
- relative viability ([6]; first compound 0.08 µM): 0.544
- relative viability ([6]; first compound 0.253 µM): 0.409
- relative viability ([6]; first compound 0.8 µM): 0.514
- relative viability ([6]; first compound 2.53 µM): 0.596
- relative viability ([6]; first compound 8 µM): 0.504
- relative viability ([7]; first compound 0.08 µM): 0.701
- relative viability ([7]; first compound 0.253 µM): 0.804
- relative viability ([7]; first compound 0.8 µM): 0.758
- relative viability ([7]; first compound 2.53 µM): 0.803
- relative viability ([7]; first compound 8 µM): 0.762
- relative viability ([8]; first compound 0.08 µM): 0.786
- relative viability ([8]; first compound 0.253 µM): 0.723
- relative viability ([8]; first compound 0.8 µM): 0.711
- relative viability ([8]; first compound 2.53 µM): 0.73
- relative viability ([8]; first compound 8 µM): 0.635
- relative viability ([9]; first compound 0.08 µM): 0.524
- relative viability ([9]; first compound 0.253 µM): 0.495
- relative viability ([9]; first compound 0.8 µM): 0.417
- relative viability ([9]; first compound 2.53 µM): 0.444
- relative viability ([9]; first compound 8 µM): 0.571
- relative viability ([10]; first compound 0.08 µM): 0.95
- relative viability ([10]; first compound 0.253 µM): 1.04
- relative viability ([10]; first compound 0.8 µM): 0.964
- relative viability ([10]; first compound 2.53 µM): 0.926
- relative viability ([10]; first compound 8 µM): 0.741
- relative viability ([11]; first compound 0.08 µM): 0.609
- relative viability ([11]; first compound 0.253 µM): 0.577
- relative viability ([11]; first compound 0.8 µM): 0.49
- relative viability ([11]; first compound 2.53 µM): 0.553
- relative viability ([11]; first compound 8 µM): 0.513
- relative viability ([12]; first compound 0.08 µM): 0.888
- relative viability ([12]; first compound 0.253 µM): 0.771
- relative viability ([12]; first compound 0.8 µM): 0.876
- relative viability ([12]; first compound 2.53 µM): 0.814
- relative viability ([12]; first compound 8 µM): 0.7
- relative viability ([13]; first compound 0.08 µM): 1.01
- relative viability ([13]; first compound 0.253 µM): 1.06
- relative viability ([13]; first compound 0.8 µM): 1
- relative viability ([13]; first compound 2.53 µM): 1.05
- relative viability ([13]; first compound 8 µM): 1.06
- relative viability ([14]; first compound 0.253 µM): 0.875
- relative viability ([14]; first compound 0.8 µM): 0.79
- relative viability ([14]; first compound 2.53 µM): 0.834
- relative viability ([14]; first compound 8 µM): 0.971
- relative viability ([15]; first compound 0.08 µM): 0.739
- relative viability ([15]; first compound 0.253 µM): 0.852
- relative viability ([15]; first compound 0.8 µM): 0.649
- relative viability ([15]; first compound 2.53 µM): 0.643
- relative viability ([15]; first compound 8 µM): 0.693
- relative viability ([16]; first compound 0.08 µM): 0.894
- relative viability ([16]; first compound 0.253 µM): 1
- relative viability ([16]; first compound 0.8 µM): 1.01
- relative viability ([16]; first compound 2.53 µM): 0.995
- relative viability ([16]; first compound 8 µM): 0.937
- relative viability ([17]; first compound 0.08 µM): 1.16
- relative viability ([17]; first compound 0.253 µM): 1.12
- relative viability ([17]; first compound 0.8 µM): 1.04
- relative viability ([17]; first compound 2.53 µM): 0.895
- relative viability ([17]; first compound 8 µM): 0.998
- relative viability ([18]; first compound 0.08 µM): 1.16
- relative viability ([18]; first compound 0.253 µM): 1.06
- relative viability ([18]; first compound 0.8 µM): 1.1
- relative viability ([18]; first compound 2.53 µM): 1.17
- relative viability ([18]; first compound 8 µM): 0.779
- relative viability ([19]; first compound 0.08 µM): 0.285
- relative viability ([19]; first compound 0.253 µM): 0.337
- relative viability ([19]; first compound 0.8 µM): 0.307
- relative viability ([19]; first compound 2.53 µM): 0.281
- relative viability ([19]; first compound 8 µM): 0.526
- relative viability ([20]; first compound 0.08 µM): 1.01
- relative viability ([20]; first compound 0.253 µM): 0.999
- relative viability ([20]; first compound 0.8 µM): 0.885
- relative viability ([20]; first compound 2.53 µM): 1.01
- relative viability ([20]; first compound 8 µM): 1.04
- relative viability ([21]; first compound 0.253 µM): 0.94
- relative viability ([21]; first compound 0.8 µM): 0.99
- relative viability ([21]; first compound 2.53 µM): 0.938
- relative viability ([21]; first compound 8 µM): 0.91
- relative viability ([22]; first compound 0.08 µM): 1.02
- relative viability ([22]; first compound 0.253 µM): 0.977
- relative viability ([22]; first compound 0.8 µM): 1.05
- relative viability ([22]; first compound 2.53 µM): 1.07
- relative viability ([22]; first compound 8 µM): 1.09
